Each structure is given as a SMILES string. Activity calls are given as the source filed them. No cut-off for these calls is given here. Where only a bound is given, the exact number is not on record here.

Ten molecules from ChEMBL document CHEMBL2429842, “Phthaloyl amino acids as anti-inflammatory and immunomodulatory prototypes” (Med Chem Res, 2013) can be followed below.

For data set [1], the system named is Peritoneal macrophage cell. The experiment in a line: Immunomodulatory activity mouse peritoneal macrophages assessed as inhibition of LPS-induced IL-1beta production at 50 uM after 24 hrs by ELISA. It is filed as functional, cell-based.
The subject of the next data set is SF-295. Briefly: Antiproliferative activity against human SF295 cells at 25 ug/ml after 48 hrs by MTT assay. It is filed as functional. Conditions: SF-295, 48 h. In general terms: Tetrazolium dyes change colour on reduction, which living cells bring about.
For the next data set, the system named is HCT-8. The experiment in a line: Antiproliferative activity against human HCT8 cells at 25 ug/ml after 48 hrs by MTT assay. It is filed as functional. Conditions: HCT-8, 48 h.
In another data set the test system is MDA-MB-435. Briefly: Antiproliferative activity against human MDA-MB-435 cells at 25 ug/ml after 48 hrs by MTT assay. It is filed as functional. Conditions: MDA-MB-435, 48 h.
The nature of data set [2]: Cytotoxicity against BALB/c mouse splenocytes assessed as cell viability after 24 hrs by [3H]-thymidine incorporation assay. To be noted: read-out: Activity. It is filed as cell-based, Splenocyte. The arrangement: concentration or dose not given beside the values.
The test system of data set [3] is Splenocyte. The experiment in a line: Immunomodulatory activity in BALB/c mouse splenocytes assessed as inhibition of LPS-induced nitric oxide production at 25 ug/ml after 72 hrs by Griess method relative to control. It is filed as functional. For orientation: The Griess reaction detects nitrite, a stable product of nitric oxide.
The subject of data set [4] is Splenocyte. The experiment in a line: Immunomodulatory activity in BALB/c mouse splenocytes assessed as inhibition of LPS-induced nitric oxide production at 50 ug/ml after 72 hrs by Griess method relative to control. It is filed as functional.
A short description of data set [5]: Cytotoxicity against BALB/c mouse splenocytes assessed as highest nontoxic concentration after 24 hrs by [3H]-thymidine incorporation assay. It is filed as cell-based, Splenocyte. To be noted: read-out: Activity.
The test system of data set [6] is Mus musculus. Briefly: Antiinflammatory activity in carrageenan-induced air pouch mouse model assessed as inhibition of leukocyte migration from blood circulation into air pouches at 100 mg/kg, po administered 1 hr before carrageenan challenge measured after 6 hrs relative to control. It is filed as functional.
Data set [7] relates to Peritoneal macrophage cell. The experiment in a line: Immunomodulatory activity mouse peritoneal macrophages assessed as inhibition of LPS-induced TNFalpha production at 50 uM after 24 hrs by ELISA. It is filed as functional, cell-based.
Data set [8] relates to Mus musculus. The experiment in a line: Immunomodulatory activity in carrageenan-induced air pouch mouse model assessed as reduction of nitric oxide production in air pouch at 10 mg/kg, po by Griess method. It is filed as functional, organism-based. On the set-up: dose 10 mg/kg.
For data set [9], the system named is Mus musculus. Briefly: Antiinflammatory activity in carrageenan-induced air pouch mouse model assessed as inhibition of leukocyte migration from blood circulation into air pouches at 10 mg/kg, po administered 1 hr before carrageenan challenge measured after 6 hrs relative to control. It is filed as functional.

As a reminder, the inhibition is the drop in the measured response relative to a control, in per cent. A word on the inhibition in vivo: it is the percentage by which the read-out fell short of the control. For the molecule `O=C(O)[C@H](Cc1ccccc1)N1C(=O)c2ccccc2C1=O`, the inhibition result in data set [1] is “Active”. Moreover, the inhibition at 25 µg/mL with SF-295 was 13.5%; in the data set on HCT-8, -7.23%; with MDA-MB-435, 11.7%. Also, the viability at 24 h in data set [2] turned out to be 21.5%. Further, the Activity turned out to be 2.3 µg/mL in the data set on Splenocyte [3] and 0.7 µg/mL with Splenocyte [4]. Also, the MNTC at 24 h in [5] was 25 µg/mL. Also, the inhibition in vivo at 100 mg/kg with Mus musculus [6] turned out to be 64.2%.
On to `O=C(O)CN1C(=O)c2ccccc2C1=O`, for which the inhibition result in data set [1] and in data set [7] was “Active” throughout. Also, the figures for the inhibition at 25 µg/mL in the data set on SF-295, with HCT-8 and in the data set with MDA-MB-435 were 3.98%, -0.61% and -4.72%, respectively. The viability at 24 h in data set [2] was 25.6%. The Activity in the data set with Splenocyte [3] came out at 4.2 µg/mL; in the data set with Splenocyte [4] it was 3.6 µg/mL. In data set [5], the MNTC at 24 h stood at 50 µg/mL. In addition, in the data set on Mus musculus [6], the inhibition in vivo at 100 mg/kg was 47.7%.
In the case of `CC(C)[C@@H](C(=O)O)N1C(=O)c2ccccc2C1=O`, the figures for the inhibition at 25 µg/mL in the data set on SF-295, in the data set with HCT-8 and in the data set with MDA-MB-435 were 2.74%, 4.28% and 7.82%, respectively. Also, in data set [2], the viability at 24 h amounted to 24.7%. Besides, the values for the Activity in the data set on Splenocyte [3] and with Splenocyte [4] were 6.4 µg/mL and 2.7 µg/mL, respectively. Further, the MNTC at 24 h in data set [5] came to 25 µg/mL. For the same molecule, in the data set on Mus musculus [6], the inhibition in vivo at 100 mg/kg was 57.8%.
Regarding `O=C(O)[C@H](Cc1c[nH]c2ccccc12)N1C(=O)c2ccccc2C1=O`, the inhibition result in data set [1] and in [7] was “Active” in each case. Moreover, the inhibition at 25 µg/mL worked out at 24.5% in the data set with SF-295, 10.4% with HCT-8 and 13.8% with MDA-MB-435. Also, in the data set on Mus musculus [8], the outcome was Active. Moreover, the viability at 24 h in [2] was determined as 27.6%. For the same molecule, the figures for the Activity with Splenocyte [3] and in the data set with Splenocyte [4] were 1.3 µg/mL and 2.1 µg/mL, respectively. The MNTC at 24 h in data set [5] amounted to 50 µg/mL. The inhibition in vivo at 100 mg/kg in the data set on Mus musculus [6] was 43.8%.
As for `COc1cccc2c1C(=O)c1c(O)c3c(c(O)c1C2=O)C[C@@](O)(C(=O)CO)C[C@@H]3O[C@H]1C[C@H](N)[C@H](O)[C@H](C)O1` [DOXORUBICIN], the inhibition at 25 µg/mL was 81.4% with SF-295, 97.1% with HCT-8 and 94.6% in the data set on MDA-MB-435.
On to `O=C(O)CCN1C(=O)c2ccccc2C1=O`, for which the inhibition at 25 µg/mL in the data set with SF-295 was 12.6%; with HCT-8, 18.9%; with MDA-MB-435, -3.71%. The viability at 24 h in data set [2] turned out to be 22.2%. Further, the Activity in the data set on Splenocyte [3] came out at 3.6 µg/mL; with Splenocyte [4], 4.4 µg/mL. Besides, the MNTC at 24 h in data set [5] came out at 50 µg/mL. Moreover, in the data set on Mus musculus [6], the inhibition in vivo at 100 mg/kg was found to be 54.2%.
Consider `CC[C@H](C)[C@@H](C(=O)O)N1C(=O)c2ccccc2C1=O`, for which the inhibition at 25 µg/mL in the data set with SF-295 was 20%; in the data set on HCT-8, 15%; in the data set on MDA-MB-435, 14.9%. Also, the inhibition in vivo at 10 mg/kg with Mus musculus [9] came to 64.7%. Also, the viability at 24 h in [2] turned out to be 26.1%. In addition, the Activity stood at 3.1 µg/mL with Splenocyte [3] and 2.3 µg/mL with Splenocyte [4]. Besides, the MNTC at 24 h in data set [5] was found to be 12.5 µg/mL. In the data set on Mus musculus [6], the inhibition in vivo at 100 mg/kg was 67.5%.
Consider `O=C(O)CC[C@@H](C(=O)O)N1C(=O)c2ccccc2C1=O`, for which the values for the inhibition at 25 µg/mL with SF-295, in the data set on HCT-8 and with MDA-MB-435 were 14.4%, 6.52% and 12.9%, respectively. Also, in data set [2], the viability at 24 h came out at 8.75%. The Activity in the data set on Splenocyte [3] stood at 2.9 µg/mL; in the data set with Splenocyte [4] it was 3.4 µg/mL. The MNTC at 24 h in data set [5] is 50 µg/mL. Moreover, in the data set with Mus musculus [6], the inhibition in vivo at 100 mg/kg was 61.7%.
`O=C1CCC(N2C(=O)c3ccccc3C2=O)C(=O)N1` (centres undefined) [THALIDOMIDE]: the inhibition in vivo at 10 mg/kg in the data set on Mus musculus [9] is 76.3%. In addition, in the data set with Mus musculus [8], the result was Active. Further, the Activity in the data set with Splenocyte [3] and in the data set with Splenocyte [4] was 3.6 µg/mL each time. For the same molecule, the MNTC at 24 h in data set [5] was greater than 100 µg/mL. The inhibition in vivo at 100 mg/kg with Mus musculus [6] worked out at 72.1%.
In the case of `C[C@@H](C(=O)O)N1C(=O)c2ccccc2C1=O`, the inhibition at 25 µg/mL with SF-295 is 12.2%; with HCT-8 it was 6.11%; in the data set with MDA-MB-435, 5.01%. For the same molecule, the Activity amounted to 2.1 µg/mL in the data set on Splenocyte [3] and 1.5 µg/mL in the data set with Splenocyte [4]. For the same molecule, the MNTC at 24 h in [5] was greater than 100 µg/mL. In addition, the inhibition in vivo at 100 mg/kg in the data set on Mus musculus [6] came to 38.4%.
